These results are taken from patent publication EP0565593B1, “REDUCING PESTICIDAL INTERACTIONS IN CROPS” (priority 1990, dated 1992).

For data set [1], the system named is Corn.
Data set [2] relates to Corn. As to the kind of experiment: Greenhouse test Procedure VII: biocide and antidote in furrow, herbicide POE (Examples 39-42, 48-50, 56-58; Tables 38-41, 47-49, 55-57). In kind it is in vivo. The note with it: for % Inhibition Corn: Antidote + Biocide No. 1 in furrow. Summed up:
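Corn seed was planted in greenhouse pots, with COUNTER 15G insecticide plus antidote granules applied in-furrow (e.g. 1.1 + 0.37 mg a.i./cm, or 227 g/305 m with acetone-applied safeners). About five days later, herbicides in water with 0.25% v/v X-77 were track-sprayed post-emergence at 187 L/ha. Plant response was scored eight days afterward, with two to four replicates.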

Data set [3] relates to Corn. The note with it: for antidote activity: COUNTER with BEACON, PURSUIT (POE) or XRD-498 (PPI), Tables 29-37; for relieving corn injury, comparison: Example 29, COUNTER/PURSUIT negative synergy; for activity in reducing corn injury: primisulfuron POE + biocides PPI, Tables 8-10.
Where [4] appears, read: malathion + Herbicides 1, 21, 18, Example 54.
The mark [5] stands for this setting: COUNTER 15G + BEACON/co-herbicide combinations, Example 56.
The mark [6] stands for this setting: in-furrow antidote, COUNTER 15G + sulfonamide herbicides, Table 41.
[7] abbreviates: DIAZINON + Herbicides 1, 21, 18, Example 53.
The mark [8] stands for this setting: MON-12000 + OP insecticides, Examples 20-23.
Where [9] appears, read: XRD-498 + OP insecticides, Examples 24-27.
Where [10] appears, read: Herbicide No. 1 0.14 Kg/Ha POE, 8 days after POE.
Setting [11] is: Herbicide No. 4 0.17 Kg/Ha POE, 8 days after POE.
[12] abbreviates: Herbicide No. 5 0.07 Kg/Ha POE, 8 days after POE.
[13] abbreviates: Herbicide No. 7 0.56 Kg/Ha POE, 8 days after POE.
Where [14] appears, read: Herbicide No. 9 0.009 Kg/Ha POE.
Where [15] appears, read: Herbicide No. 10 0.002 Kg/Ha POE, 8 days after POE.
Setting [16] is: Herbicide No. 15 0.0044 Kg/Ha POE, 8 days after POE.
Setting [17] is: Herbicide No. 16 0.01 Kg/Ha POE.
The mark [18] stands for this setting: Herbicide No. 18 0.0044 Kg/Ha POE.
Where [19] appears, read: Herbicide No. 19 0.28 Kg/Ha POE.
Setting [20] is: Herbicide No. 21 0.14 Kg/Ha POE.
The mark [21] stands for this setting: Herbicide No. 23 0.0006 Kg/Ha POE.
Setting [22] is: ACCENT POE + OP insecticides PPI, Tables 11-14.
Setting [23] is: Antidote 4.48 + Biocide No. 1 8.96 Kg/Ha PPI, Herb. No. 8 0.07, 5 DAP, before herbicide application.
Setting [24] is: Antidote 4.48 + Biocide No. 1 8.96 Kg/Ha PPI, Herb. No. 8 0.07 POE, 13 DAP.
The mark [25] stands for this setting: Antidote 4.48 + Biocide No. 1 8.96 Kg/Ha PPI, Herbicide No. 7 0.28 POE, 13 days after planting.
Setting [26] is: Herb. […], 5 DAP, before herbicide application.
[27] abbreviates: Table 14: Herbicide No. 7 (ACCENT) 0.84 Kg/Ha POE + Biocide No. 2 8.96 Kg/Ha PPI + antidote 4.48 Kg/Ha PPI, 13 days after planting, 8 days after herbicide.
[28] abbreviates: […], 13 days after planting, 8 days after herbicide.
Where [29] appears, read: […], observed 10 days after herbicide application.

The structures appear in SMILES notation. Values joined by “and” are separate entries in the source; they are usually repeats but may differ in a detail not shown here. Equal entries are not always repeated. Where two headings read alike, the source gives them in different places.

For the molecule `COC(=O)c1c(Cl)nn(C)c1S(=O)(=O)NC(=O)Nc1nc(OC)cc(OC)n1` [Herbicide No. 1, N-[(4,6-dimethoxypyrimidin-2-yl)aminocarbonyl]-3-chloro-4-methoxycarbonyl-5-sulfonamide, reference compound], the “% Inhibition Corn” value in data set [1] (Herb. […], PPI, 13 days after planting) came out at 70%; in data set [1] (Herbicide No. 1 0.0175 Kg/Ha PPI alone, Table 19), 5%; in data set [1] (Herbicide No. 1 0.0175 Kg/Ha PPI alone, Table 20) it was 0%; in data set [1] (Herbicide No. 1 0.0175 Kg/Ha PPI alone, Table 21) it was 0%; in data set [1] (Herbicide No. 1 0.0175 Kg/Ha PPI alone, Table 22), 0%; in data set [1] (Table 53, Herbicide No. 1, rate printed as '-', where applied Biocide No. 7 8.96 kg/Ha and antidote 4.48 Kg/Ha, all PPI, observed 13 days after treatment), 5%. Besides, the “% Inhibition Corn” value in data set [1] (Table 54, Herbicide No. 1, rate printed as '-', where applied Biocide No. 6 8.96 kg/Ha and antidote 4.48 Kg/Ha, all PPI, observed 14 days after PPI initiation) is 5%; in data set [1] (in vivo), 50% and 45%. Also, the corn injury in data set [1] (MON-12000 0.14 kg/ha with the OP insecticides at 8.96 kg/ha) was 45-50%; in data set [1] (MON-12000 0.14 kg/ha without insecticide, Examples 20-23) it was 0-5%.
Consider `O=C(OCc1ccccc1)c1sc(Cl)nc1C(F)(F)F` [Antidote No. 7, 5-Thiazolecarboxylic acid, 2-chloro-4-(trifluoromethyl)-, (phenylmethyl) ester], for which, in data set [1] (setting [4]), the “safening” value is “moderate to high degrees of safening”. The “corn injury” value in data set [2] (setting [5]) is given as “reduced corn injury”; in data set [2] (setting [6]), “significantly reduced”. The “antidote activity” value in data set [3] was “slightly more active than other thiazoles tested”.
Regarding `COC(=O)COC(c1ccccc1)c1ccccc1` [Antidote No. 12, Acetic acid, (diphenylmethoxy)-, methyl ester], the “safening” value is “Effective safening” in data set [1] (setting [7]) and “moderate to high degrees of safening” in data set [1] (setting [4]). Moreover, the “corn injury” value is given as “reduced corn injury” in data set [2] (setting [5]) and “significantly reduced” in data set [2] (setting [6]). Also, the “safening of corn injury” value in data set [2] (COUNTER 15G + sulfonamide herbicides POE, Table 41) was 92-100%. In data set [2] (COUNTER 15G in furrow, POE sulfonylurea herbicides, Tables 38, 39), the “safening effects” value is “highest and most consistent safening effects”. Also, the “safener efficacy” value in data set [2] (COUNTER + PURSUIT/co-herbicide tank mixtures, Example 58) is reported as “most efficacious safener”. Also, the “antidote efficacy” value in data set [2] (imidazolinone herbicides + COUNTER 15G, Table 40) was “most efficacious antidote”. For the same molecule, the “relieving corn injury, comparison” value in data set [3] was “more active than Antidote No. 28”.
Regarding `COC(=O)COC(c1ccccc1)c1ccccc1` [compound 12], the “safening activity” value in data set [1] (setting [8]) and in data set [1] (setting [9]) was “Safening activity was observed” each time. Further, the “% Inhibition Corn” value is on record as 25% in data set [1] ([…], PPI, 14 days after PPI (Table 34)); 0% in data set [2] (setting [10]); 0% in data set [2] (setting [11]); 0% in data set [2] (setting [12]); 0% in data set [2] (Herbicide No. 6 0.01 Kg/Ha POE); 5% in data set [2] (setting [13]). In addition, the “% Inhibition Corn” value in data set [2] (setting [14]) is on record as 0%; in data set [2] (setting [15]), 5%; in data set [2] (setting [16]), 0%; in data set [2] (setting [17]), 15%; in data set [2] (setting [18]) it was 10%; in data set [2] (setting [19]), 0%. The “% Inhibition Corn” value worked out at 5% in data set [2] (setting [20]); 5% in data set [2] (setting [21]); 20% in data set [3] (setting [25]); 0% in data set [3] (setting [27]); 0% in data set [3] (setting [28]); 0% in data set [3] ([…], observed 8 days later (Table 32)). The “% Inhibition Corn” value in data set [3] ([…], observed 8 days later (Table 33)) was determined as 40%; in data set [3] (setting [29]) it was 60%. Besides, the “reducing corn injury, comparison” value in data set [1] (in vivo) is reported as “superior to No. 28”. Also, in data set [3] (setting [22]), the “safener activity” value is “most active”. Also, the “% Inhibition 5 DAP Corn” value is 20% in data set [3] (setting [23]), 0% in data set [3] (setting [26]) and 20% in data set [3] (in vivo). Besides, the “% Inhibition 13 DAP Corn” value in data set [3] (setting [24]) came out at 15%; in data set [3] (in vivo) it was 20%. Moreover, the “activity in reducing corn injury” value in data set [3] is given as “most active”.
For `N#CCOc1ccc(Cl)c2cccnc12` [compound 33], the “safening activity” value in data set [1] (setting [8]) and in data set [1] (setting [9]) was “Safening activity was observed” each time. In data set [1] (setting [4]), the “safening” value is on record as “moderate to high degrees of safening”. Moreover, the “% Inhibition Corn” value in data set [2] (setting [10]) is 0%; in data set [2] (setting [11]), 5%; in data set [2] (setting [12]), 30%; in data set [2] (Herbicide No. 6 0.01 Kg/Ha POE), 20%; in data set [2] (setting [13]), 10%; in data set [2] (setting [14]) it was 5%. For the same molecule, the “% Inhibition Corn” value in data set [2] (setting [15]) stood at 5%; in data set [2] (setting [16]), 15%; in data set [2] (setting [17]) it was 30%; in data set [2] (setting [18]), 10%; in data set [2] (setting [19]), 10%; in data set [2] (setting [20]) it was 20%. In addition, the “% Inhibition Corn” value in data set [2] (setting [21]) is 15%; in data set [3] (setting [25]), 15%; in data set [3] (setting [27]) it was 0%; in data set [3] (setting [28]) it was 10%; in data set [3] (setting [29]), 40%. Further, the “safener activity” value is “most active” in data set [3] (setting [22]) and “most active” in data set [3] (PURSUIT POE + insecticides PPI, Tables 15-18). The “% Inhibition 5 DAP Corn” value was found to be 25% in data set [3] (setting [23]), 0% in data set [3] (setting [26]) and 30% in data set [3] (in vivo). Further, the “% Inhibition 13 DAP Corn” value in data set [3] (setting [24]) and in data set [3] (in vivo) was 20% in each case. Further, in data set [3] (in vivo), the “effect on corn before application of the herbicide” value is reported as “Some injury”. The “activity in reducing corn injury” value in data set [3] is given as “most active”.
With `CC1(C)OC(c2ccco2)CN1C(=O)C(Cl)Cl` (stereo not shown) [Antidote No. 1, Oxazolidine, 3-(dichloroacetyl)-2,2-dimethyl-5-(2-furanyl)-], in data set [1] (setting [7]), the “safening” value is given as “Effective safening”. Moreover, in data set [2] (setting [5]), the “corn injury” value was “reduced corn injury”. In data set [2] (COUNTER/ACCENT, 160 ratio, Example 50), the “safening, comparison” value is “more effective than MON-7400”. Also, the “corn injury” value in data set [2] (setting [6]) is “significantly reduced”. In data set [3], the “antidote activity” value is listed as “most active antidote” and the “relieving corn injury, comparison” value is given as “more active than Antidote No. 28”.
